Experimental data taken from ChEMBL document CHEMBL1136143, “Synthesis and activity of novel benzoxazole derivatives of mannopeptimycin glycopeptide antibiotics” (2003).
In brackets after ≈: the same amount, converted by molar mass.

Experiments:
Assay type in all cases: functional
[1] = system: Enterococcus faecium; assay: In vitro minimum inhibitory concentration against vancomycin-resistant Enterococcus faecium (GC 4558)
[2] = system: Enterococcus faecalis; assay: In vitro minimum inhibitory concentration against vancomycin-susceptible Enterococcus faecalis (GC 2691)
[3] = system: Micrococcus luteus; assay: In vitro minimum inhibitory concentration against Micrococcus lutea (GC 4562)
[4] = system: Enterococcus faecalis; assay: In vitro minimum inhibitory concentration against vancomycin-susceptible Enterococcus faecalis (GC 4554)
[5] = system: Staphylococcus aureus; assay: In vitro minimum inhibitory concentration against Staphylococcus aureus (10strains, including MRSA)
[6] = system: Enterococcus sp.; assay: In vitro minimum inhibitory concentration against Enterococcus species (11 strains, including VRE)
[7] = system: Streptococcus pneumoniae; assay: In vitro minimum inhibitory concentration against Penicillin susceptible Streptococcus pneumoniae (GC 4565)
[8] = system: Enterococcus faecium; assay: In vitro minimum inhibitory concentration against vancomycin-susceptible Enterococcus faecium (GC 4556)
[9] = system: Streptococcus pyogenes; assay: In vitro minimum inhibitory concentration against Streptococcus pyogenes (GC 4563)
[10] = system: Enterococcus faecalis; assay: In vitro minimum inhibitory concentration against vancomycin-resistant Enterococcus faecalis (GC 3059)
[11] = system: Enterococcus faecalis; assay: In vitro minimum inhibitory concentration against vancomycin-susceptible Enterococcus faecalis (GC 4552)
[12] = system: Streptococcus; assay: In vitro minimum inhibitory concentration against Streptococcus Species (5 strains, including PRSP)
[13] = system: Staphylococcus aureus; assay: In vitro minimum inhibitory concentration against Methicillin-resistant Staphylococcus aureus(GC 4541)
[14] = system: Staphylococcus aureus; assay: In vitro minimum inhibitory concentration against Methicillin-resistant Staphylococcus aureus(GC 4545)
[15] = system: Staphylococcus aureus; assay: In vitro minimum inhibitory concentration against Methicillin-resistant Staphylococcus aureus (GC 1131)
[16] = system: Enterococcus faecalis; assay: In vitro minimum inhibitory concentration against vancomycin-susceptible Enterococcus faecalis (GC 4555)
[17] = system: Staphylococcus haemolyticus; assay: In vitro minimum inhibitory concentration against methicillin-resistant Coagulase-negative Staphylococci (MRCNS) (GC 4546))
[18] = system: Staphylococcus aureus; assay: In vitro minimum inhibitory concentration against Methicillin-resistant Staphylococcus aureus(GC 4544)
[19] = system: Staphylococcus haemolyticus; assay: In vitro minimum inhibitory concentration against methicillin-susceptible Coagulase-negative Staphylococci (MSCNS) (GC 4549))
[20] = system: Staphylococcus haemolyticus; assay: In vitro minimum inhibitory concentration against methicillin-resistant Coagulase-negative Staphylococci (MRCNS) (GC 4547))
[21] = system: Staphylococcus haemolyticus; assay: In vitro minimum inhibitory concentration against methicillin-susceptible Coagulase-negative Staphylococci (MSCNS) (GC 4551)
[22] = system: Enterococcus faecalis; assay: In vitro minimum inhibitory concentration against vancomycin-resistant Enterococcus faecalis (GC 6189)
[23] = system: Enterococcus faecium; assay: In vitro minimum inhibitory concentration against vancomycin-resistant Enterococcus faecium (GC 2243)
[24] = system: Streptococcus pneumoniae; assay: In vitro minimum inhibitory concentration against Penicillin resistant Streptococcus pneumoniae (GC 1894)
[25] = system: Staphylococcus aureus; assay: In vitro minimum inhibitory concentration against glycopeptide tntermediate Staphylococcus aureus (GC 3066)
[26] = system: Staphylococcus aureus; assay: In vitro minimum inhibitory concentration against glycopeptide tntermediate Staphylococcus aureus (GC 3051)
[27] = system: Staphylococcus haemolyticus; assay: In vitro minimum inhibitory concentration against methicillin-resistant Coagulase-negative Staphylococci (MRCNS) (GC 4548))
[28] = system: Enterococcus faecalis; assay: In vitro minimum inhibitory concentration against vancomycin-resistant Enterococcus faecalis (GC 2242)
[29] = system: Enterococcus faecalis; assay: In vitro minimum inhibitory concentration against vancomycin-susceptible Enterococcus faecalis (GC 4553)
[30] = system: Bacillus cereus; assay: In vitro minimum inhibitory concentration against Bacillus cereus (GC 4561) assay organism
[31] = system: Streptococcus pneumoniae; assay: In vitro minimum inhibitory concentration against Penicillin susceptible Streptococcus pneumoniae (GC 6242)
[32] = system: Staphylococcus aureus; assay: In vitro minimum inhibitory concentration against Methicillin-resistant Staphylococcus aureus (GC 2216)
[33] = system: Staphylococcus aureus; assay: In vitro minimum inhibitory concentration against Methicillin-resistant Staphylococcus aureus (GC 4543)
[34] = system: Streptococcus agalactiae; assay: In vitro minimum inhibitory concentration against Streptococcus agalactiae (GC4564)
[35] = system: Staphylococcus aureus; assay: In vitro minimum inhibitory concentration against Methicillin-resistant Staphylococcus aureus (GC 4542)
[36] = system: Enterococcus faecium; assay: In vitro minimum inhibitory concentration against vancomycin-susceptible Enterococcus faecium (GC 4557)
[37] = system: Staphylococcus haemolyticus; assay: In vitro minimum inhibitory concentration against methicillin-susceptible Coagulase-negative Staphylococci (MSCNS) (GC 6257)

Row | Compound | MIC [1] [µg/mL] | MIC [2] [µg/mL] | MIC [3] [µg/mL] | MIC [4] [µg/mL] | MIC [5] [µg/mL] | MIC [6] [µg/mL] | MIC [7] [µg/mL] | MIC [8] [µg/mL] | MIC [9] [µg/mL] | MIC [10] [µg/mL] | MIC [11] [µg/mL] | MIC [12] [µg/mL] | MIC [13] [µg/mL] | MIC [14] [µg/mL] | MIC [15] [µg/mL] | MIC [16] [µg/mL] | MIC [17] [µg/mL] | MIC [18] [µg/mL] | MIC [19] [µg/mL] | MIC [20] [µg/mL] | further results
1 | Cc1ccc(Oc2ccc(-c3nc4ccc(C[C@H]5NC(=O)[C@H]([C@@H](C)c6ccccc6)NC(=O)CNC(=O)[C@H](CO)NC(=O)[C@@H]([C@@H](O)[C@@H]6CN=C(N)N6[C@H]6O[C@H](CO)[C@@H](O)[C@H](O)[C@@H]6O)NC(=O)[C@H]([C@H](O)[C@@H]6CN=C(N)N6)NC5=O)cc4o3)cc2)cc1 | 4 (≈ 3.39 µM) | 8 (≈ 6.79 µM) | 1 (≈ 0.849 µM) | 8 (≈ 6.79 µM) | 4 (≈ 3.39 µM) | 4 (≈ 3.39 µM) | 4 (≈ 3.39 µM) | 8 (≈ 6.79 µM) | 1 (≈ 0.849 µM) | 8 (≈ 6.79 µM) | 8 (≈ 6.79 µM) | 1 (≈ 0.849 µM) | 8 (≈ 6.79 µM) | 4 (≈ 3.39 µM) | 8 (≈ 6.79 µM) | 8 (≈ 6.79 µM) | 4 (≈ 3.39 µM) | 8 (≈ 6.79 µM) | 4 (≈ 3.39 µM) | 8 (≈ 6.79 µM) | MIC [21]: 4 µg/mL (≈ 3.39 µM); MIC [22]: 8 µg/mL (≈ 6.79 µM); MIC [23]: 8 µg/mL (≈ 6.79 µM); MIC [24]: 4 µg/mL (≈ 3.39 µM); MIC [25]: 4 µg/mL (≈ 3.39 µM); MIC [26]: 4 µg/mL (≈ 3.39 µM); MIC [27]: 4 µg/mL (≈ 3.39 µM); MIC [28]: 4 µg/mL (≈ 3.39 µM); MIC [29]: 4 µg/mL (≈ 3.39 µM); MIC [30]: 8 µg/mL (≈ 6.79 µM); MIC [31]: 4 µg/mL (≈ 3.39 µM); MIC [32]: 8 µg/mL (≈ 6.79 µM); MIC [33]: 4 µg/mL (≈ 3.39 µM); MIC [34]: 4 µg/mL (≈ 3.39 µM); MIC [35]: 8 µg/mL (≈ 6.79 µM); MIC [36]: 4 µg/mL (≈ 3.39 µM); MIC [37]: 2 µg/mL (≈ 1.7 µM)
2 | C[C@@H](c1ccccc1)[C@@H]1NC(=O)CNC(=O)[C@H](CO)NC(=O)[C@@H]([C@@H](O)[C@@H]2CN=C(N)N2[C@H]2O[C@H](CO)[C@@H](O)[C@H](O)[C@@H]2O)NC(=O)[C@H]([C@H](O)[C@@H]2CN=C(N)N2)NC(=O)[C@@H](Cc2ccc3nc(SCC(=O)c4ccc(Cl)cc4)oc3c2)NC1=O | 4 (≈ 3.39 µM) | 16 (≈ 13.6 µM) | 16 (≈ 13.6 µM) | 16 (≈ 13.6 µM) | 2 (≈ 1.69 µM) | 2 (≈ 1.69 µM) | 8 (≈ 6.78 µM) | 8 (≈ 6.78 µM) | 2 (≈ 1.69 µM) | 32 (≈ 27.1 µM) | 2 (≈ 1.69 µM) | 2 (≈ 1.69 µM) | 4 (≈ 3.39 µM) | 2 (≈ 1.69 µM) | 4 (≈ 3.39 µM) | 16 (≈ 13.6 µM) | 1 (≈ 0.847 µM) | 4 (≈ 3.39 µM) | 1 (≈ 0.847 µM) | 4 (≈ 3.39 µM) | MIC [21]: 4 µg/mL (≈ 3.39 µM); MIC [22]: 16 µg/mL (≈ 13.6 µM); MIC [23]: 8 µg/mL (≈ 6.78 µM); MIC [24]: 8 µg/mL (≈ 6.78 µM); MIC [25]: 4 µg/mL (≈ 3.39 µM); MIC [26]: 4 µg/mL (≈ 3.39 µM); MIC [27]: 2 µg/mL (≈ 1.69 µM); MIC [28]: 16 µg/mL (≈ 13.6 µM); MIC [29]: 4 µg/mL (≈ 3.39 µM); MIC [30]: 1 µg/mL (≈ 0.847 µM); MIC [31]: 8 µg/mL (≈ 6.78 µM); MIC [32]: 8 µg/mL (≈ 6.78 µM); MIC [33]: 2 µg/mL (≈ 1.69 µM); MIC [34]: 4 µg/mL (≈ 3.39 µM); MIC [35]: 4 µg/mL (≈ 3.39 µM); MIC [36]: 2 µg/mL (≈ 1.69 µM); MIC [37]: 1 µg/mL (≈ 0.847 µM)
